#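 GI50 is the concentration that inhibits growth by half. The concentration for full growth arrest is given as TGI.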
# Experiments:
# Test in all cases: DTP human tumour cell line panel, 384-well format
# SK-MEL-5 melanoma = system: SK-MEL-5 melanoma
# OVCAR-8 ovarian = system: OVCAR-8 ovarian
# HCT-15 colon = system: HCT-15 colon
# 786-0 renal = system: 786-0 renal
# UACC-62 melanoma = system: UACC-62 melanoma
# DU-145 prostate = system: DU-145 prostate
# MDA-MB-435 melanoma = system: MDA-MB-435 melanoma
# SR leukemia = system: SR leukemia
# MALME-3M melanoma = system: MALME-3M melanoma
# KM12 colon = system: KM12 colon
# MOLT-4 leukemia = system: MOLT-4 leukemia
# SF-268 CNS = system: SF-268 CNS
# HOP-62 NSCLC = system: HOP-62 NSCLC
# HS 578T breast = system: HS 578T breast
# COLO 205 colon = system: COLO 205 colon
# A549 NSCLC = system: A549 NSCLC
# TK-10 renal = system: TK-10 renal
# MDA-MB-468 breast = system: MDA-MB-468 breast
# NCI-H522 lung = system: NCI-H522 lung
# RXF 393 renal = system: RXF 393 renal
# BT-549 breast = system: BT-549 breast
# T-47D breast = system: T-47D breast
# SNB-19 CNS = system: SNB-19 CNS
# IGROV1 ovarian = system: IGROV1 ovarian
# EKVX NSCLC = system: EKVX NSCLC
# HT29 colon = system: HT29 colon
# M14 melanoma = system: M14 melanoma
# HCT-116 colon = system: HCT-116 colon
# HOP-92 NSCLC = system: HOP-92 NSCLC
# SK-MEL-2 melanoma = system: SK-MEL-2 melanoma
# NCI-H23 lung = system: NCI-H23 lung
# UACC-257 melanoma = system: UACC-257 melanoma
# OVCAR-5 ovarian = system: OVCAR-5 ovarian
# A498 renal = system: A498 renal
# NCI-H226 lung = system: NCI-H226 lung
# SF-295 CNS = system: SF-295 CNS
# LOX IMVI melanoma = system: LOX IMVI melanoma
# NCI-H322M lung = system: NCI-H322M lung
# UO-31 renal = system: UO-31 renal
# SK-MEL-28 melanoma = system: SK-MEL-28 melanoma
# PC-3 prostate = system: PC-3 prostate
# MCF7 breast = system: MCF7 breast
# HCC-2998 colon = system: HCC-2998 colon
# RPMI-8226 leukemia = system: RPMI-8226 leukemia
# SN12C renal = system: SN12C renal
# NCI/ADR-RES ovarian = system: NCI/ADR-RES ovarian
# CCRF-CEM leukemia = system: CCRF-CEM leukemia
smiles,measurement,setting,value
CC(=O)N1CCC(Nc2cc(C(=O)NC[C@H](O)CN3CCc4ccccc4C3)ncn2)CC1,GI50,SK-MEL-5 melanoma,> 100 µM
same,TGI,SK-MEL-5 melanoma,> 100 µM
same,GI50,OVCAR-8 ovarian,> 100 µM
same,TGI,OVCAR-8 ovarian,> 100 µM
same,GI50,HCT-15 colon,> 100 µM
same,TGI,HCT-15 colon,> 100 µM
same,GI50,786-0 renal,> 100 µM
same,TGI,786-0 renal,> 100 µM
same,GI50,UACC-62 melanoma,> 100 µM
same,TGI,UACC-62 melanoma,> 100 µM
same,GI50,DU-145 prostate,> 100 µM
same,TGI,DU-145 prostate,> 100 µM
same,GI50,MDA-MB-435 melanoma,> 100 µM
same,TGI,MDA-MB-435 melanoma,> 100 µM
same,GI50,SR leukemia,0.183 µM
same,TGI,SR leukemia,> 100 µM
same,GI50,MALME-3M melanoma,> 100 µM
same,TGI,MALME-3M melanoma,> 100 µM
same,GI50,KM12 colon,> 100 µM
same,TGI,KM12 colon,> 100 µM
same,GI50,MOLT-4 leukemia,< 0.0138 µM
same,TGI,MOLT-4 leukemia,0.0854 µM
same,GI50,SF-268 CNS,> 100 µM
same,TGI,SF-268 CNS,> 100 µM
same,GI50,HOP-62 NSCLC,> 100 µM
same,TGI,HOP-62 NSCLC,> 100 µM
same,GI50,HS 578T breast,> 100 µM
same,TGI,HS 578T breast,> 100 µM
same,GI50,COLO 205 colon,> 100 µM
same,TGI,COLO 205 colon,> 100 µM
same,GI50,A549 NSCLC,> 100 µM
same,TGI,A549 NSCLC,> 100 µM
same,GI50,TK-10 renal,> 100 µM
same,TGI,TK-10 renal,> 100 µM
same,GI50,MDA-MB-468 breast,29.5 µM
same,TGI,MDA-MB-468 breast,> 100 µM
same,GI50,NCI-H522 lung,> 100 µM
same,TGI,NCI-H522 lung,> 100 µM
same,GI50,RXF 393 renal,> 100 µM
same,TGI,RXF 393 renal,> 100 µM
same,GI50,BT-549 breast,> 100 µM
same,TGI,BT-549 breast,> 100 µM
same,GI50,T-47D breast,0.658 µM
same,TGI,T-47D breast,> 100 µM
same,GI50,SNB-19 CNS,> 100 µM
same,TGI,SNB-19 CNS,> 100 µM
same,GI50,IGROV1 ovarian,> 100 µM
same,TGI,IGROV1 ovarian,> 100 µM
same,GI50,EKVX NSCLC,> 100 µM
same,TGI,EKVX NSCLC,> 100 µM
same,GI50,HT29 colon,> 100 µM
same,TGI,HT29 colon,> 100 µM
same,GI50,M14 melanoma,> 100 µM
same,TGI,M14 melanoma,> 100 µM
same,GI50,HCT-116 colon,> 100 µM
same,TGI,HCT-116 colon,> 100 µM
same,GI50,HOP-92 NSCLC,> 28.1 µM
same,TGI,HOP-92 NSCLC,> 100 µM
same,GI50,SK-MEL-2 melanoma,> 100 µM
same,TGI,SK-MEL-2 melanoma,> 100 µM
same,GI50,NCI-H23 lung,> 100 µM
same,TGI,NCI-H23 lung,> 100 µM
same,GI50,UACC-257 melanoma,> 100 µM
same,TGI,UACC-257 melanoma,> 100 µM
same,GI50,OVCAR-5 ovarian,> 100 µM
same,TGI,OVCAR-5 ovarian,> 100 µM
same,GI50,A498 renal,> 100 µM
same,TGI,A498 renal,> 100 µM
same,GI50,NCI-H226 lung,> 100 µM
same,TGI,NCI-H226 lung,> 100 µM
same,GI50,SF-295 CNS,> 100 µM
same,TGI,SF-295 CNS,> 100 µM
same,GI50,LOX IMVI melanoma,> 100 µM
same,TGI,LOX IMVI melanoma,> 100 µM
same,GI50,NCI-H322M lung,> 100 µM
same,TGI,NCI-H322M lung,> 100 µM
same,GI50,UO-31 renal,> 100 µM
same,TGI,UO-31 renal,> 100 µM
same,GI50,SK-MEL-28 melanoma,> 100 µM
same,TGI,SK-MEL-28 melanoma,> 100 µM
same,GI50,PC-3 prostate,> 100 µM
same,TGI,PC-3 prostate,> 100 µM
same,GI50,MCF7 breast,> 36.8 µM
same,TGI,MCF7 breast,> 100 µM
same,GI50,HCC-2998 colon,> 100 µM
same,TGI,HCC-2998 colon,> 100 µM
same,GI50,RPMI-8226 leukemia,61.6 µM
same,TGI,RPMI-8226 leukemia,> 100 µM
same,GI50,SN12C renal,> 100 µM
same,TGI,SN12C renal,> 100 µM
same,GI50,NCI/ADR-RES ovarian,> 100 µM
same,TGI,NCI/ADR-RES ovarian,> 100 µM
same,GI50,CCRF-CEM leukemia,> 100 µM
same,TGI,CCRF-CEM leukemia,> 100 µM

# From PubChem BioAssay (NCI)
